Tests used:
[1] = target: Histone acetyltransferase p300 (Homo sapiens) (UniProt Q09472); assay: Binding affinity to EP300 (unknown origin) using biotinylated histone peptide H4 as substrate at 1 uM incubated for 2 hrs by AlphaScreen assay relative to control
[2] = target: T1, Transcription intermediary factor 1-alpha (Homo sapiens) (UniProt O15164); assay: Binding affinity to TRIM24 (unknown origin) using biotinylated histone peptide H4 as substrate at 1 uM incubated for 2 hrs by AlphaScreen assay relative to control
T1 sequence (whole entry): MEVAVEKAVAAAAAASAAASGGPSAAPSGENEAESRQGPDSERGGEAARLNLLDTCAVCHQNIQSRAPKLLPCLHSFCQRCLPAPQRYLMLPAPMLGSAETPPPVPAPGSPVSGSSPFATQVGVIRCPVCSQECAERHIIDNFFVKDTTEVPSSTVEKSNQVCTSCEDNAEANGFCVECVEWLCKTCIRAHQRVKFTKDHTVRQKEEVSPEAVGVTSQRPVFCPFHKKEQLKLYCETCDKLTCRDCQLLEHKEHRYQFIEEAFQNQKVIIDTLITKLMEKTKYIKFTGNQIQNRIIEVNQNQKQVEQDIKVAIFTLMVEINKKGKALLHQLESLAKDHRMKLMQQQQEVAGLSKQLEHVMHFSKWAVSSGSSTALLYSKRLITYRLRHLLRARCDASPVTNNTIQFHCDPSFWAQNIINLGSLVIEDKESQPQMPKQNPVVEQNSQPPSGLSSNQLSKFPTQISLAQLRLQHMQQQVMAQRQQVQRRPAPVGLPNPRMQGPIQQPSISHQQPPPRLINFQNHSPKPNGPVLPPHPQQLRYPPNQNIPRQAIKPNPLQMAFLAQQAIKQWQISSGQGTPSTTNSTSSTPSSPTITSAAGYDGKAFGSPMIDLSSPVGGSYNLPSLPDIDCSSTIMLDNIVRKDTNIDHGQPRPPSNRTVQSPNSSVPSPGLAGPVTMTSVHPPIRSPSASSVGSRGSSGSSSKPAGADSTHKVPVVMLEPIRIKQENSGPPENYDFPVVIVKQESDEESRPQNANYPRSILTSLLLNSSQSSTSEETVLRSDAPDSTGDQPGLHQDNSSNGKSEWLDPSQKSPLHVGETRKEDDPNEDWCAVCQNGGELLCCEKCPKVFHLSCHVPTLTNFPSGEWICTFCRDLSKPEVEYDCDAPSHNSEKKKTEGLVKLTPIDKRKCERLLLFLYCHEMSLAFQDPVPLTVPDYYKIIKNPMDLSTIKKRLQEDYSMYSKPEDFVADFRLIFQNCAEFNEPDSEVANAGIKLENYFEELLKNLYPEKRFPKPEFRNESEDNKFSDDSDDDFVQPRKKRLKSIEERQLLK

[3] = target: SWI/SNF-related matrix-associated actin-dependent regulator of chromatin subfamily A member 4 (Homo sapiens) (UniProt P51532); assay: Binding affinity to SMARCA4 (unknown origin) using biotinylated histone peptide H4 as substrate at 1 uM incubated for 2 hrs by AlphaScreen assay relative to control
[4] = target: T2, Bromodomain-containing protein 9 (Homo sapiens) (UniProt Q9H8M2); settings: time 30.0 min
T2 sequence (whole entry): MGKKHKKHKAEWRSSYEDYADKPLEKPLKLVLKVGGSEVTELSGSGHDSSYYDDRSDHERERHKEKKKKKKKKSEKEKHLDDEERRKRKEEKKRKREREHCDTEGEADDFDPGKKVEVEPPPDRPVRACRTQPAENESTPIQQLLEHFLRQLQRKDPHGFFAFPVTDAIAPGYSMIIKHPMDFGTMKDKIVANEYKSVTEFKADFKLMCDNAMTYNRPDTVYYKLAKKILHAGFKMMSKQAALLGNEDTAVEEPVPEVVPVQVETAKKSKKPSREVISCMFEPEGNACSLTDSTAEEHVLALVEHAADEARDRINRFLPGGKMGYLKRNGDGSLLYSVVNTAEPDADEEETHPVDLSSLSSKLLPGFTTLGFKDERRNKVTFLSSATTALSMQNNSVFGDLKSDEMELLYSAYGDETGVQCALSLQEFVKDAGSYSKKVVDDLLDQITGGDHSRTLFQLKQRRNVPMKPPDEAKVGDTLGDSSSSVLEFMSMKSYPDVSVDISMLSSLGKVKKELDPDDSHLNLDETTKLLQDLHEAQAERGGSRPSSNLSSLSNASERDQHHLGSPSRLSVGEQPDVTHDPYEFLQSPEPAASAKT

[5] = target: T1, Transcription intermediary factor 1-alpha (Homo sapiens); settings: time 30.0 min
[6] = target: Transcription initiation factor TFIID subunit 1 (Homo sapiens) (UniProt P21675); settings: time 30.0 min
Homo sapiens = species on record: Homo sapiens; settings: time 30.0 min
[7] = target: SWI/SNF-related matrix-associated actin-dependent regulator of chromatin subfamily A member 4 (Homo sapiens) (UniProt P51532); settings: time 30.0 min
Jurkat = assay: cells; settings: Homo sapiens, 48 h
Description: Antiproliferative activity against human Jurkat cells assessed as inhibition of cell growth incubated for 48 hrs by MTT assay

MM1.S = assay: cells; settings: Homo sapiens, 48 h
Description: Antiproliferative activity against human MM1.S cells assessed as inhibition of cell growth incubated for 48 hrs by MTT assay

Chain of SWI/SNF-related matrix-associated actin-dependent regulator of chromatin subfamily A member 4 (Homo sapiens) (P51532 whole entry): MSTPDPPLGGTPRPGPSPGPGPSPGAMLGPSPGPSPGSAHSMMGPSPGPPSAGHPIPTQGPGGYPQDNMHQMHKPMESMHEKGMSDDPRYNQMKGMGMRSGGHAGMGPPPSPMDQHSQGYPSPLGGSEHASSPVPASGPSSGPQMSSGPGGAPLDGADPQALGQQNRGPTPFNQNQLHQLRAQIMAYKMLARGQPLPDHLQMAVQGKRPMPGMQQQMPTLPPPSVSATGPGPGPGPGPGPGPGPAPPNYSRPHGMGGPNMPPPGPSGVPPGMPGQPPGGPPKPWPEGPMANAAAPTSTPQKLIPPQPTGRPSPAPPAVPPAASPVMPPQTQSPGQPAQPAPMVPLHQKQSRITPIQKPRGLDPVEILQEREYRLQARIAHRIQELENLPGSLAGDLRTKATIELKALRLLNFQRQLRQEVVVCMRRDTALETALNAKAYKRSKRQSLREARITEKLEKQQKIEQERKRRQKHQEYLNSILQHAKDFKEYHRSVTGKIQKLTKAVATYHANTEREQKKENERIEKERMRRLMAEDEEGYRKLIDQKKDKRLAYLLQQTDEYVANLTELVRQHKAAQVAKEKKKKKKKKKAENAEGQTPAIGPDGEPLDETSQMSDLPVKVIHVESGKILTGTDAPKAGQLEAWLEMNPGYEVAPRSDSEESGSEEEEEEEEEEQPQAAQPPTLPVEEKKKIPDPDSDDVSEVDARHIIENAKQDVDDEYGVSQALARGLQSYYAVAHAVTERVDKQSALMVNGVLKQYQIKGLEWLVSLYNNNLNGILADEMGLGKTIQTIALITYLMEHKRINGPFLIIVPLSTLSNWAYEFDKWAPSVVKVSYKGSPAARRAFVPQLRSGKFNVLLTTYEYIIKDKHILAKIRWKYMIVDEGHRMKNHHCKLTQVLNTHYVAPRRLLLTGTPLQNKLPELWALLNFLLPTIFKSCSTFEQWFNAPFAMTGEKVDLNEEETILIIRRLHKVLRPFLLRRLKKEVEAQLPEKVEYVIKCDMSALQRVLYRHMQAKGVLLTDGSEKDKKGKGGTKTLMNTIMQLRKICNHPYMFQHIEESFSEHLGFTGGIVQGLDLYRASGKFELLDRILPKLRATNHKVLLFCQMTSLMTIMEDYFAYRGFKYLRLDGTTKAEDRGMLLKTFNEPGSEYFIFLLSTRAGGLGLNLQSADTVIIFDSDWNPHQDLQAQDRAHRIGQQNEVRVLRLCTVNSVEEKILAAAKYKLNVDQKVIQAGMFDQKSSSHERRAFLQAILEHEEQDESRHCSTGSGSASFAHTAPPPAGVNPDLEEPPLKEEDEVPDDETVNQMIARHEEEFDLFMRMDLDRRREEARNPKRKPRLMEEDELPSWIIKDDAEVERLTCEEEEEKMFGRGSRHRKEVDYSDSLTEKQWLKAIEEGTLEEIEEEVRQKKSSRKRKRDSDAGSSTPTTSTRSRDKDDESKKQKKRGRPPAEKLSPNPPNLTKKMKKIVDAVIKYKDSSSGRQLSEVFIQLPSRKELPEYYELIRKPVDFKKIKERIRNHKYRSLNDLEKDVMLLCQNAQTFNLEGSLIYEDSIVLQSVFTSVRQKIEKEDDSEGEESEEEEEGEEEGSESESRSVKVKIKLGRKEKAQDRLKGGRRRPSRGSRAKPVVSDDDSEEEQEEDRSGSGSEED
Chain of Histone acetyltransferase p300 (Homo sapiens) (Q09472 whole entry): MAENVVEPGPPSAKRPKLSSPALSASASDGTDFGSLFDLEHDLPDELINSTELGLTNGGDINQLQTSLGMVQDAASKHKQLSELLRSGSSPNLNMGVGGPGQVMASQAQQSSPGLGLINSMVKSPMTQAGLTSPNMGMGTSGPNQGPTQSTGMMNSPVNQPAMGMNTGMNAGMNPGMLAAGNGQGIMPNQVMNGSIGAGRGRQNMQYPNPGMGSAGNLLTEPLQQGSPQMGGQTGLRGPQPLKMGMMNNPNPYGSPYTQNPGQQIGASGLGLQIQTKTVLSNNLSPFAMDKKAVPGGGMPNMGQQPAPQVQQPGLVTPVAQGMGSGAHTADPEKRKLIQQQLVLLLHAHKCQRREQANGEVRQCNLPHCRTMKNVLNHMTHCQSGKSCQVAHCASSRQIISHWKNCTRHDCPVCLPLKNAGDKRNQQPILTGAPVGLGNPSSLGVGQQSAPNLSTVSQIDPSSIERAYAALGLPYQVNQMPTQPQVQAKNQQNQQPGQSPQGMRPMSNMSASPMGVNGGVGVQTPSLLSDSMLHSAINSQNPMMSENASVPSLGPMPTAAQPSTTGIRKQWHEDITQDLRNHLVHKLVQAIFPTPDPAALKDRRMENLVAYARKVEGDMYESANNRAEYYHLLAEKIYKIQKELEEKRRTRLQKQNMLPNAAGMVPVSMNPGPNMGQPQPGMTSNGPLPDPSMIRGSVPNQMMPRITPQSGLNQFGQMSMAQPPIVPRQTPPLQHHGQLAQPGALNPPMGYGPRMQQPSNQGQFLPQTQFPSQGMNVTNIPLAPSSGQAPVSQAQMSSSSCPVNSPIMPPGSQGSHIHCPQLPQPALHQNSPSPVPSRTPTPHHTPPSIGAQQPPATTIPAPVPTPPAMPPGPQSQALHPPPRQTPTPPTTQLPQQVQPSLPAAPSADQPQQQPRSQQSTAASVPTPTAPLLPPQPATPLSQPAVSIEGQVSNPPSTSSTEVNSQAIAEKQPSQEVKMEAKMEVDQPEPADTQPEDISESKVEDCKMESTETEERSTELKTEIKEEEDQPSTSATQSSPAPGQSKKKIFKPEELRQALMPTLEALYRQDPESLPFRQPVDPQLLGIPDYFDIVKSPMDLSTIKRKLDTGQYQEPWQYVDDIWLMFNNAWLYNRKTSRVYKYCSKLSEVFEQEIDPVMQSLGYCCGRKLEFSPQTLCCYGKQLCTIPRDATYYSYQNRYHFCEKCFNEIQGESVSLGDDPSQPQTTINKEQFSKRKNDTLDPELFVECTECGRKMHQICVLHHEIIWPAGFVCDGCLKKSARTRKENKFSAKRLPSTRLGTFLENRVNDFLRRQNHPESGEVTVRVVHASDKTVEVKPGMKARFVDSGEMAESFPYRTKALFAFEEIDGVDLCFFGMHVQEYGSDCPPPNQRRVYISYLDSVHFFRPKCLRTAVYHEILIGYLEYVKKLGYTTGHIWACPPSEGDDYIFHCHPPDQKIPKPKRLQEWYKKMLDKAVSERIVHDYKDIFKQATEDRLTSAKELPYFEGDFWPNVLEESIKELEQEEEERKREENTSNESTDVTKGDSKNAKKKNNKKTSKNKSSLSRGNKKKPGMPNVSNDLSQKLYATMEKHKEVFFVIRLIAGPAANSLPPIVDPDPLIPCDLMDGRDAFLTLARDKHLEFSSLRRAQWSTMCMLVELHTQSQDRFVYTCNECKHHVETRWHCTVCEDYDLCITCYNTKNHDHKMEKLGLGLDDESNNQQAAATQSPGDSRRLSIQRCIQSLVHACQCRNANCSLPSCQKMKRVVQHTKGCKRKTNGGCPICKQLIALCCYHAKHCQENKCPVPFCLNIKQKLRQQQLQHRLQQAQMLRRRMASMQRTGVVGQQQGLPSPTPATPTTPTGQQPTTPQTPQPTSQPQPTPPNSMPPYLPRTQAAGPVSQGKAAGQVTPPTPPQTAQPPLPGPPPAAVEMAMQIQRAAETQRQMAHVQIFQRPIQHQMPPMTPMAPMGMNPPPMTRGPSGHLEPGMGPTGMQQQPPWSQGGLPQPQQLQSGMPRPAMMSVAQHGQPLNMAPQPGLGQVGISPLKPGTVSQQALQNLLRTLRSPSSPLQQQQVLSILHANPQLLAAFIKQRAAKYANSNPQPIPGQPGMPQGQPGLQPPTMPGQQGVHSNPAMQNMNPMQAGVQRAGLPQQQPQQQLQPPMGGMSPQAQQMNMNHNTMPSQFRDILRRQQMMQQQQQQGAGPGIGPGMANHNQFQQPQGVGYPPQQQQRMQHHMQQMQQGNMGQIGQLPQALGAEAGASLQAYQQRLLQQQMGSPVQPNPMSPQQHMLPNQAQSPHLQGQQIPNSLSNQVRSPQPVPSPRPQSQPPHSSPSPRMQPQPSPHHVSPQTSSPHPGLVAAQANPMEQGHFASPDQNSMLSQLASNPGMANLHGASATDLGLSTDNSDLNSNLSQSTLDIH

| Activity [1] | Activity [2] | Activity [3] | ΔTm [4] | ΔTm [5] | ΔTm [6] | ΔTm (Homo sapiens) | ΔTm [7] | IC50 (Jurkat) | IC50 (MM1.S) | SMILES |
| --- | --- | --- | --- | --- | --- | --- | --- | --- | --- | --- |
| < 30% | < 30% | < 30% | 0 °C | 0 °C | 0 °C | 0 °C | 0 °C | 730 nM | 480 nM | COc1cc2c(cc1-c1c(C)n[nH]c1C)ncc1nc(C)n([C@H](C)c3ccccc3)c12 |
| > 80% | < 30% | < 30% | 0 °C | 0 °C | 0 °C | 0 °C | 0 °C | 2080 nM | 530 nM | COc1cc2c(cc1-c1c(C)noc1C)ncc1nc(C)n([C@H](C)c3ccccc3)c12 |

— ChEMBL document CHEMBL5532655, “Discovery of (R)-4-(8-methoxy-2-methyl-1-(1-phenylethy)-1H-imidazo[4,5-c]quinnolin-7-yl)-3,5-dimethylisoxazole as a potent and selective BET inhibitor for treatment of acute myeloid leukemia (AML) guided by FEP calculation” (Eur J Med Chem, 2024)
